Measured values taken from ChEMBL document CHEMBL5126591, “Early potential evaluation of lead compounds from a DNA-encoded library by the determination of their thermodynamics through a chromatographic method based on immobilized β2-adrenoceptor” (Bioorg Med Chem, 2022).
Active and inactive are the calls of the source. No cut-off for these calls is given here.

Columns and labels:
[1] = target: T1, Beta-2 adrenergic receptor (Homo sapiens, UniProt P07550); assay: Binding affinity to immobilized Halo tag-fused beta2 adrenoceptor (unknown origin) expressed in Escherichia coli BL21 (DE3) assessed as reduction in retention time by chromatographic analysis
Target sequence in this assay (P07550 whole entry, looked up, the tested form may be a part): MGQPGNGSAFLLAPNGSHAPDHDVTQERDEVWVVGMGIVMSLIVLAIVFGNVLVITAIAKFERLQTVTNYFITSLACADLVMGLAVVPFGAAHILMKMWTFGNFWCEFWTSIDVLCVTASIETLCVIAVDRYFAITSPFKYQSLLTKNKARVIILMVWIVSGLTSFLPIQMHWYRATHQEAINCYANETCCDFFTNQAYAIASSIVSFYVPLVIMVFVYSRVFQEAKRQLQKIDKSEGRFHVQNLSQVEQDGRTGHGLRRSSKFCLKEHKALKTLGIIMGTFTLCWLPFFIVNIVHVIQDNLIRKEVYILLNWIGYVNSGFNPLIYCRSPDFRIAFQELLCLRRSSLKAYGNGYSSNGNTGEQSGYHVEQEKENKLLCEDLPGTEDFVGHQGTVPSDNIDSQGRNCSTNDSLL

[2] = target: T1, Beta-2 adrenergic receptor
Target sequence in this assay (P07550 whole entry, looked up, the tested form may be a part): as above
Description: Binding affinity to immobilized Halo tag-fused beta2 adrenoceptor (unknown origin) expressed in Escherichia coli BL21 (DE3) assessed as retention time by chromatographic analysis

[3] = target: T1, Beta-2 adrenergic receptor; assay: Displacement of [3H]-CGP12,177 from immobilized Halo tag-fused beta2 adrenoceptor (unknown origin) expressed in Escherichia coli BL21 (DE3)
Target sequence in this assay (P07550 whole entry, the tested form may be a part): as the sequence (P07550 whole entry, looked up, the tested form may be a part) above

SMILES: CC1(C)[C@@H](O)CC[C@]2(C)[C@H]3C(=O)C=C4[C@@H]5C[C@@](C)(C(=O)NCCc6ccc(O)cc6)CC[C@]5(C)CC[C@@]4(C)[C@]3(C)CC[C@@H]12
- Activity [1]: Active

SMILES: O=NO
- Retention time [2]: 2.4 min

SMILES: CNC(C)Cc1ccccc1OC (centres undefined) [METHOXYPHENAMINE]
- Ka [3]: 2.08 10^5/M
- Retention time [2]: 4.6 min
